# Test system: IL-1β release in U937 cells after NLRP3 activation
# Assay: IC50 determination of IL-1β release inhibition in U937 cells
# Assay type: cell-based
# Settings: Homo sapiens, U-937; PMA-differentiated U937 cells, LPS priming 5 h, nigericin; average of at least three experiments; read-out: IL-1β IC50 (nM) U937 cells
# Protocol: Example 79: IC50 Determination of IL-1β Release Inhibition in U937 Cells The compounds of the present disclosure were tested for their ability to inhibit the IL-1β release in the U937 cells after NLRP3 activation. U937 cells (U-97 CRL 1593.2) were thawed following ATCC's initial culture procedure. […] The growth medium was composed of RPMI1640 medium (Quality Biological 112-040-101), 10% serum (Corning 35-076-CV), Pen/Strep (GIBCO 15140-122), 10 mM Hepes (Quality Biological 118-089-721), 2 mM Glutamax (GIBCO 35050-061), and 100 μg/mL normocin (Invivogen ant-nr)-Differentiating media was prepared by adding Phorbol 12-myristate 13-acetate (PMA) (AdipoGen AG-CN2-0010-M005) to growth medium. A cell suspension was prepared with differentiating media at 500k cells/ml. With an electronic pipet, 200 ul of cell suspension was added to each well (96w white plate Corning 3903) leaving columns 1 and 2 empty. Plates were left in the biosafety cabinet for 15 min and then placed in incubator for 90 hours. Priming media was prepared with assay medium consisting of RPMI 1640 medium, 10 mM Hepes, 2 mM Glutamax and Pen/Strep plus 1 μg/mL LPS (Invivogen tlrl-3pelps). Differentiating media was manually removed and 80 ul of priming media was added to each well with an electronic pipet. The plates were placed in the incubator for 5 hours. […] DMSO). An hour prior to the end of LPS incubation, a separate 96 deep well plate, Plate B, was prepared with 400 μL of assay media per well, then […] of the stock DMSO solution from Plate A was added to each corresponding well. Plate B was covered to avoid media evaporation. In a 50 mL tube, a solution of nigericin in assay media at 50 uM/mL concentration was prepared. To a new 96 deep well plate, Plate C, 200 μL of this nigericin containing media was dispensed to each well and 1 μL of the test compounds from Plate B to each corresponding well was added. Plate C was covered to avoid media evaporation. After 5 hours of priming, all the media from the LPS treated U937 cells was removed manually. To this plate of primed cells, 80 μL/well test compounds from Plate B (assay media+compound) was added in duplicate columns (5 compounds tested per plate). The plate was placed in an incubator for 30 min. […] The plate was placed back in the incubator for 1 hour. At the end of 1 hour, the supernatant from this test plate was transferred to a new 96 well V bottom polypropylene plate which was frozen immediately at -80° C. The plate was transferred to -20° C. the next day and awaited further determination of cytokine IL-Ip level. The release of IL-1β into the cell media was determined by MSD® Multi-Spot Assay System (V-Plex, IL-1B kit, […]-4). Following the manufacture's protocol and using the Alternate Protocol 3, Dilute-In-Plate protocol specifically, the level of IL-IP in the above collected supernatant plate was measured as electrochemiluminescent signals. Using MSD DISCOVERY WORKBENCH® analysis software, the signals were converted to the concentration of IL-1β in each well. The IC50 values of the compounds were calculated using the Graph Pad Prism software based on the IL-1β concentration determined. The detection range of IL-1β using MSD kit was approximately […] (based on various lots of standards purchased from MSD).
row,SMILES,IC50 [nM]
1,"CC(C)n1nc(S(=O)(=O)NC(=O)Nc2c3c(c(Cl)c4c2CCC4)CCC3)cc1CN(C)CC1(O)CCC1 [Example 69, N-((8-chloro-1,2,3,5,6,7-hexahydro-s-indacen-4-yl)carbamoyl)-5-((((1-hydroxycyclobutyl)methyl)(methyl)amino)methyl)-1-isopropyl-1H-pyrazole-3-sulfonamide]",5 to 50
2,"N=S(=O)(NC(=O)Nc1c2c(cc3c1CCC3)CCC2)c1cc(C(=O)N2CC3(CC(O)C3)C2)co1 (centres unmarked) [Example 3, N-((1,2,3,5,6,7-hexahydro-s-indacen-4-yl)carbamoyl)-4-(6-hydroxy-2-azaspiro[3.3]heptane-2-carbonyl)furan-2-sulfonimidamide]",50 to 500
3,"CC(C)(O)c1cc(S(=O)(=O)NC(=O)Nc2c3c(cc4c2CCC4)CCC3)oc1CN1CCNCC1 [Example 70, N-((1,2,3,5,6,7-hexahydro-s-indacen-4-yl)carbamoyl)-4-(2-hydroxypropan-2-yl)-5-(piperazin-1-ylmethyl)furan-2-sulfonamide]",5 to 50
4,"CC(C)n1nc(S(=N)(=O)NC(=O)Nc2c3c(cc4c2CCC4)CCC3)cc1CN (centres unmarked) [Example 77, 5-(aminomethyl)-N-((1,2,3,5,6,7-hexahydro-s-indacen-4-yl)carbamoyl)-1-isopropyl-1H-pyrazole-3-sulfonimidamide]",50 to 500
5,"CN(Cc1cc(S(=O)(=O)NC(=O)Nc2c3c(c(F)c4c2CCC4)CCC3)nn1C)CC1(CO)CCOCC1 [Example 64, N-((8-fluoro-1,2,3,5,6,7-hexahydro-S-indacen-4-yl)carbamoyl)-5-((((4-(hydroxymethyl)tetrahydro-2H-pyran-4-yl)methyl)(methyl)amino)methyl)-1-methyl-1H-pyrazole-3-sulfonamide]",50 to 500
6,"Cc1oc(S(=O)(=O)NC(=O)Nc2c3c(c(F)c4c2CCC4)CCC3)cc1CN(C)CC1(CO)CCC1 [Example 47, N-((8-fluoro-1,2,3,5,6,7-hexahydro-s-indacen-4-yl)carbamoyl)-4-((((1-(hydroxymethyl)cyclobutyl)methyl)(methyl)amino)methyl)-5-methylfuran-2-sulfonamide]",5 to 50
7,"CC(C)n1nc(S(=O)(=O)NC(=O)Nc2c3c(c(F)c4c2CCC4)CCC3)cc1CN(C)CC1(O)CCC1 [Example 66, N-((8-fluoro-1,2,3,5,6,7-hexahydro-s-indacen-4-yl)carbamoyl)-5-((((1-hydroxycyclobutyl)methyl)(methyl)amino)methyl)-1-isopropyl-1H-pyrazole-3-sulfonamide]",< 5
8,"O=C(Nc1c2c(cc3c1CCC3)CCC2)NS(=O)(=O)c1cc(CN2CC(O)C2)co1 [Example 32, N-((1,2,3,5,6,7-hexahydro-s-indacen-4-yl)carbamoyl)-4-((3-hydroxyazetidin-1-yl)methyl)furan-2-sulfonamide]",50 to 500
9,"Cc1oc(S(=O)(=O)NC(=O)Nc2c3c(c(F)c4c2CCC4)CCC3)cc1CN1C[C@@H](F)[C@@H](O)C1 [Example 40, N-((8-fluoro-1,2,3,5,6,7-hexahydro-s-indacen-4-yl)carbamoyl)-4-(((3R,4S)-3-fluoro-4-hydroxypyrrolidin-1-yl)methyl)-5-methylfuran-2-sulfonamide]",5 to 50
10,"CN(Cc1cc(S(=O)(=O)NC(=O)Nc2c3c(c(Cl)c4c2CCC4)CCC3)nn1C)CC1(O)CCC1 [Example 68, N-((8-chloro-1,2,3,5,6,7-hexahydro-s-indacen-4-yl)carbamoyl)-5-((((1-hydroxycyclobutyl)methyl)(methyl)amino)methyl)-1-methyl-1H-pyrazole-3-sulfonamide]",5 to 50
11,"CC(C)n1nc(S(=O)(=O)NC(=O)Nc2c3c(c(F)c4c2CCC4)CCC3)cc1CN1CC[C@H](O)C1 [Example 67, (S)—N-((8-fluoro-1,2,3,5,6,7-hexahydro-s-indacen-4-yl)carbamoyl)-5-((3-hydroxypyrrolidin-1-yl)methyl)-1-isopropyl-1H-pyrazole-3-sulfonamide]",5 to 50
12,"N=S(=O)(NC(=O)Nc1c2c(cc3c1CCC3)CCC2)c1cc(CN)co1 (centres unmarked) [Example 22, 4-(aminomethyl)-N-((1,2,3,5,6,7-hexahydro-s-indacen-4-yl)carbamoyl)furan-2-sulfonimidamide]",5 to 50
13,"N=S(=O)(NC(=O)Nc1c2c(cc3c1CCC3)CCC2)c1cc(CO[C@H]2C[C@H](N)C2)co1 (some centres unmarked) [Example 18, 4-(((1r,3r)-3-aminocyclobutoxy)methyl)-N-((1,2,3,5,6,7-hexahydro-s-indacen-4-yl)carbamoyl)furan-2-sulfonimidamide]",5 to 50
14,CN(C(=O)c1coc(S(=N)(=O)NC(=O)Nc2c3c(cc4c2CCC4)CCC3)c1)[C@H]1C[C@H](N)C1 (some centres unmarked) [Example 16],> 500
15,"Cc1cc(S(=O)(=O)NC(=O)Nc2c3c(c(F)c4c2CCC4)CCC3)oc1CN1C[C@@H](F)[C@@H](O)C1 [Example 55, N-((8-fluoro-1,2,3,5,6,7-hexahydro-s-indacen-4-yl)carbamoyl)-5-(((3R,4S)-3-fluoro-4-hydroxypyrrolidin-1-yl)methyl)-4-methylfuran-2-sulfonamide]",5 to 50
16,"Cc1cc(S(=O)(=O)NC(=O)Nc2c3c(c(F)c4c2CCC4)CCC3)oc1CN1C[C@@H](O)[C@@H](F)C1 [Example 53, N-((8-fluoro-1,2,3,5,6,7-hexahydro-s-indacen-4-yl)carbamoyl)-5-(((38,4R)-3-fluoro-4-hydroxypyrrolidin-1-yl)methyl)-4-methylfuran-2-sulfonamide]",5 to 50
17,"CN(Cc1cc(S(=O)(=O)NC(=O)Nc2c3c(c(F)c4c2CCC4)CCC3)nn1C)CC1(CO)CCC1 [Example 65, N-((8-fluoro-1,2,3,5,6,7-hexahydro-s-indacen-4-yl)carbamoyl)-5-((((1-(hydroxymethyl)cyclobutyl)methyl)(methyl)amino)methyl)-1-methyl-1H-pyrazole-3-sulfonamide]",5 to 50
18,"Cc1cc(S(=O)(=O)NC(=O)Nc2c3c(c(F)c4c2CCC4)CCC3)oc1CN1C[C@H](O)[C@@H](F)C1 [Example 56, N-((8-fluoro-1,2,3,5,6,7-hexahydro-s-indacen-4-yl)carbamoyl)-5-(((3S,4S)-3-fluoro-4-hydroxypyrrolidin-1-yl)methyl)-4-methylfuran-2-sulfonamide]",5 to 50
19,"Cc1oc(S(=O)(=O)NC(=O)Nc2c3c(c(Cl)c4c2CCC4)CCC3)cc1CN1CC[C@H](O)C1 [Example 49, (S)—N-((8-chloro-1,2,3,5,6,7-hexahydro-s-indacen-4-yl)carbamoyl)-4-((3-hydroxypyrrolidin-1-yl)methyl)-5-methylfuran-2-sulfonamide]",5 to 50
20,"Cc1cc(S(=O)(=O)NC(=O)Nc2c3c(c(F)c4c2CCC4)CCC3)oc1CN1CC[C@@H](O)C1 [Example 52, (R)-N-((8-fluoro-1,2,3,5,6,7-hexahydro-s-indacen-4-yl)carbamoyl)-5-((3-hydroxypyrrolidin-1-yl)methyl)-4-methylfuran-2-sulfonamide]",5 to 50
21,"Cc1oc(S(=O)(=O)NC(=O)Nc2c3c(c(F)c4c2CCC4)CCC3)cc1CN(C)CC1(CO)CCOCC1 [Example 46, N-((8-fluoro-1,2,3,5,6,7-hexahydro-s-indacen-4-yl)carbamoyl)-4-((((4-(hydroxymethyl)tetrahydro-2H-pyran-4-yl)methyl)(methyl)amino)methyl)-5-methylfuran-2-sulfonamide]",5 to 50
22,"N=S(=O)(NC(=O)Nc1c2c(cc3c1CCC3)CCC2)c1cc(CN2CC3(CC(O)C3)C2)co1 (centres unmarked) [Example 2, N-((1,2,3,5,6,7-hexahydro-s-indacen-4-yl)carbamoyl)-4-((6-hydroxy-2-azaspiro[3.3]heptan-2-yl)methyl)furan-2-sulfonimidamide]",50 to 500
23,"Cc1cc(S(=O)(=O)NC(=O)Nc2c3c(c(F)c4c2CCC4)CCC3)oc1CN1C[C@@H](O)[C@H](F)C1 [Example 54, N-((8-fluoro-1,2,3,5,6,7-hexahydro-s-indacen-4-yl)carbamoyl)-5-(((3R,4R)-3-fluoro-4-hydroxypyrrolidin-1-yl)methyl)-4-methylfuran-2-sulfonamide]",< 5
